Measured values from ChEMBL document CHEMBL1914323, “Tricyclic aminopyrimidine histamine H4 receptor antagonists” (Bioorg Med Chem Lett, 2011).
Converted amounts (≈) assume the structure as drawn. The source made the active and inactive calls. The calls are words filed in the database; no cut-off is given here.

Key:
Histamine H4 receptor [1] = biological target: T1, Histamine H4 receptor (Homo sapiens, UniProt Q9H3N8); assay: Displacement of [3H]histamine from recombinant human histamine H4 receptor
T1 sequence (Q9H3N8 whole entry): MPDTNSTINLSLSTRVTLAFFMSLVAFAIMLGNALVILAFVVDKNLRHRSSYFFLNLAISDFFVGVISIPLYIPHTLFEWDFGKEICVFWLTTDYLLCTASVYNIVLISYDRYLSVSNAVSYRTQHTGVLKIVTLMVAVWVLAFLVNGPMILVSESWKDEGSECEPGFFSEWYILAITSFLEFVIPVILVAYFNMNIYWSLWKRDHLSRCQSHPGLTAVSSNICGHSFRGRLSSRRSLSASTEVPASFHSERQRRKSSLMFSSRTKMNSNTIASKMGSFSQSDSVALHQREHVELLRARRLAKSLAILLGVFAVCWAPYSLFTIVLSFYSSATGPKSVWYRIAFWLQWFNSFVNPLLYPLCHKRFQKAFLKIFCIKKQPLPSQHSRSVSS

Histamine H4 receptor [2] = biological target: T1, Histamine H4 receptor; assay: Antagonist activity at recombinant human histamine H4 receptor; format: functional; conditions: read-out: pA2 (converted)
[3] = Metabolic stability in human liver microsomes after 15 mins; format: ADME, Microsome; conditions: read-out: Stability
[4] = Metabolic stability in rat liver microsomes after 15 mins; format: ADME, Microsome; conditions: read-out: Stability
[5] = Solubility of the compound at pH 7; format: physicochemical; conditions: buffer
[6] = Metabolic stability in human liver microsomes assessed as half life; format: ADME, Microsome
Mus musculus = assay: Antiinflammatory activity in BALB/c mouse asthma model assessed as inhibition of ovalbumin-induced eosinophil accumulation in lung lavage at 10 mg/kg, po BID 20 mins prior to each ovalbumin challenge for 4 times measured after 24 hrs by coulter counter assay; format: functional, organism-based; design: dose 10 mg/kg
[7] = Fraction unbound in human plasma; format: ADME, cell-free
[8] = biological target: T2, Voltage-gated inwardly rectifying potassium channel KCNH2 (Homo sapiens, UniProt Q12809); assay: Inhibition of human ERG by binding assay
T2 sequence (Q12809 whole entry): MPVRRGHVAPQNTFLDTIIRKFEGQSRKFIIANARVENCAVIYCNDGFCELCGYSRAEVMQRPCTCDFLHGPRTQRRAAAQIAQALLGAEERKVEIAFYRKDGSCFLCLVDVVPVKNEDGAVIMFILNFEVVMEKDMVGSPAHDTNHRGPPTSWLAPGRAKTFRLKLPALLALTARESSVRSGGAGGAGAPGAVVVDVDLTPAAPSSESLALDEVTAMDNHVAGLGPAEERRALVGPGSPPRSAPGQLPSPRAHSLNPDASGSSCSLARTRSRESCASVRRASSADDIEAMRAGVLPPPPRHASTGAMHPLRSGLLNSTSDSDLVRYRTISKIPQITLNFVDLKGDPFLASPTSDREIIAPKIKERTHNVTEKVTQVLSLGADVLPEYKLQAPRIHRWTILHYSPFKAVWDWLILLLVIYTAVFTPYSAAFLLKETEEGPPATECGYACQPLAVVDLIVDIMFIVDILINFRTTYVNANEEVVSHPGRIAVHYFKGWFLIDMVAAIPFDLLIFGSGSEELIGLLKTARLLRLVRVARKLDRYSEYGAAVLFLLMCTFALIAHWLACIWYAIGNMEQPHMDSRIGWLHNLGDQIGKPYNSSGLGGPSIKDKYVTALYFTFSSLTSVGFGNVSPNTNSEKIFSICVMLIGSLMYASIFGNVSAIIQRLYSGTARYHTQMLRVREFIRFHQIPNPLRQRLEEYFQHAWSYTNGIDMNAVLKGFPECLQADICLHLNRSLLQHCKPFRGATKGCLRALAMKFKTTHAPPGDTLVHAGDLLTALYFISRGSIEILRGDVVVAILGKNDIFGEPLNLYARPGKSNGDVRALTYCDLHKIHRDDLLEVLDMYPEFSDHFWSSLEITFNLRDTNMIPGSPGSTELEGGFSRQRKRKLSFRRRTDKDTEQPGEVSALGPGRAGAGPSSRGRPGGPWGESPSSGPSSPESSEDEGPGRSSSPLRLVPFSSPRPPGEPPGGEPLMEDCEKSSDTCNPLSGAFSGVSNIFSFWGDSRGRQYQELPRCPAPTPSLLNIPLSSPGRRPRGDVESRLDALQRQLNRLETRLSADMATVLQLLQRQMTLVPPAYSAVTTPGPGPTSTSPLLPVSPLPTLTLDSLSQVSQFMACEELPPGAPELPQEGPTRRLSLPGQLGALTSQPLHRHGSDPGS

[9] = AUC in dog at 2 mg/kg, iv; format: ADME, organism-based, Canis lupus familiaris; design: dose 2 mg/kg, route intravenous; conditions: plasma
[10] = Half life in dog at 10 mg/kg, po; format: ADME, organism-based, Canis lupus familiaris; design: dose 10 mg/kg, route oral; conditions: in vivo
[11] = Oral bioavailability in rat at 10 mg/kg; format: ADME, organism-based; conditions: in vivo
[12] = Cmax in rat at 10 mg/kg, po; format: ADME, organism-based; design: dose 10 mg/kg, route oral; conditions: in vivo
[13] = Half life in rat at 10 mg/kg, po; format: ADME, organism-based; design: dose 10 mg/kg, route oral; conditions: in vivo
[14] = Apparent permeability from basolateral to apical side of human Caco2 cells; format: ADME, cell-based; conditions: Caco-2
[15] = Fraction unbound in mouse plasma; format: ADME, cell-free
[16] = AUC in rat at 2 mg/kg, iv; format: ADME, organism-based; design: dose 2 mg/kg, route intravenous; conditions: plasma
[17] = Half life in rat at 2 mg/kg, iv; format: ADME, organism-based; design: dose 2 mg/kg, route intravenous; conditions: in vivo
[18] = Volume of distribution at steady state in dog at 2 mg/kg, iv; format: ADME, organism-based, Canis lupus familiaris; design: dose 2 mg/kg, route intravenous; conditions: in vivo, read-out: Vdss
[19] = Clearance in dog at 2 mg/kg, iv; format: ADME, organism-based, Canis lupus familiaris; design: dose 2 mg/kg, route intravenous; conditions: in vivo
[20] = biological target: T2, Voltage-gated inwardly rectifying potassium channel KCNH2; assay: Inhibition of human ERG by patch clamp technique
[21] = Solubility of the compound at pH 2; format: physicochemical; conditions: buffer
[22] = Metabolic stability in rat liver microsomes assessed as half life; format: ADME, Microsome
[23] = Clearance in rat at 2 mg/kg, iv; format: ADME, organism-based; design: dose 2 mg/kg, route intravenous; conditions: in vivo
[24] = Cmax in dog at 10 mg/kg, po; format: ADME, organism-based, Canis lupus familiaris; design: dose 10 mg/kg, route oral; conditions: in vivo
[25] = Volume of distribution at steady state in rat at 2 mg/kg, iv; format: ADME, organism-based; design: dose 2 mg/kg, route intravenous; conditions: in vivo, read-out: Vdss
[26] = Apparent permeability from apical to basolateral side of human Caco2 cells; format: ADME, cell-based; conditions: Caco-2
[27] = Oral bioavailability in dog at 10 mg/kg; format: ADME, organism-based, Canis lupus familiaris; conditions: in vivo
[28] = Metabolic stability in dog liver microsomes assessed as half life; format: ADME, Canis lupus familiaris, Microsome
[29] = Half life in dog at 2 mg/kg, iv; format: ADME, organism-based, Canis lupus familiaris; design: dose 2 mg/kg, route intravenous; conditions: in vivo

Cc1csc2c(N3CCN(C)CC3)ncnc12
Ki (Histamine H4 receptor [1]): > 205 nM

NC[C@H]1CCN(c2nc(N)nc3c2oc2ccc(Cl)cc23)C1
Ki (Histamine H4 receptor [1]): 137 nM

Nc1nc(N2CCC[C@H](N)C2)c2oc3ccc(Cl)cc3c2n1
Ki (Histamine H4 receptor [1]): 5.7 nM

Nc1nc(N2C[C@@H]3C[C@H]2CN3)c2oc3ccc(Cl)cc3c2n1
Ki (Histamine H4 receptor [1]): 26 nM

Nc1nc(N2CC[C@@H](NCCO)C2)c2oc3ccc(Cl)cc3c2n1
Ki (Histamine H4 receptor [1]): 46 nM

CNC1CCN(c2nc(N)nc3c2oc2ccc(Cl)cc23)C1 (stereo not drawn)
Ki (Histamine H4 receptor [1]): 0.9 nM
Kb (Histamine H4 receptor [2]): 10 nM
remaining at […] [3]: 100%
remaining at […] [4]: 100%
solubility [5]: 0.054 µM (≈ 0.0172 µg/mL)

CN1CCN(c2nc(N)nc3c2oc2ncc(Cl)cc23)CC1
Ki (Histamine H4 receptor [1]): 33 nM

CN[C@H]1CCN(c2nc(N)nc3c2oc2ccc(Cl)cc23)C1
Ki (Histamine H4 receptor [1]): 2 nM

CN1CCN(CCCOc2ccc(-c3nc4cc(Cl)ccc4[nH]3)cc2)CC1
Ki (Histamine H4 receptor [1]): 120 nM

CN1CCN(c2nc(N)nc3c2oc2ccc(Cl)c(Cl)c23)CC1
Ki (Histamine H4 receptor [1]): 7.7 nM

Nc1nc(N2CC(N)C2)c2oc3ncc(Cl)cc3c2n1
Ki (Histamine H4 receptor [1]): 613 nM

CN1CCN(c2nc(N)nc3c2oc2ccc(F)c(F)c23)CC1
Ki (Histamine H4 receptor [1]): 156 nM

Nc1nc(N2CCNCC2)c2oc3c(Cl)cc(Cl)cc3c2n1
Ki (Histamine H4 receptor [1]): 138 nM

C[C@H]1CN(c2nc(N)nc3c2oc2ncc(Cl)cc23)CCN1
Ki (Histamine H4 receptor [1]): 885 nM

Nc1nc(N2CCNCC2)c2oc3cccc(Cl)c3c2n1
Ki (Histamine H4 receptor [1]): 1050 nM

Nc1nc(N2C[C@H]3C[C@@H]2CN3)c2oc3ccc(Cl)cc3c2n1
Ki (Histamine H4 receptor [1]): 104 nM

CN1CCN(c2ncnc3c2oc2ccccc23)CC1
Ki (Histamine H4 receptor [1]): 56 nM
half-life [6]: < 5 min

CN[C@H]1CCN(c2nc(N)nc3c2sc2ccc(Cl)cc23)C1
Ki (Histamine H4 receptor [1]): 76 nM

CNC1CCN(c2ncnc3c2sc2ccccc23)CC1
Ki (Histamine H4 receptor [1]): > 10000 nM

CN[C@@H]1CCN(c2nc(N)nc3c2oc2ccc(Br)cc23)C1
Ki (Histamine H4 receptor [1]): 0.7 nM

CN1CCCN(c2nc(N)nc3c2oc2ncc(Cl)cc23)CC1
Ki (Histamine H4 receptor [1]): 37 nM

Nc1nc(N2CCC[C@H](N)C2)c2oc3ccc(C(F)(F)F)cc3c2n1
Ki (Histamine H4 receptor [1]): 42 nM

Nc1nc(N2C[C@@H]3C[C@H]2CN3)c2oc3ncc(Cl)cc3c2n1
Ki (Histamine H4 receptor [1]): > 10000 nM

CN1CCN(c2nc(N)nc3c2sc2cc(Cl)ccc23)CC1
Ki (Histamine H4 receptor [1]): 18 nM

CN[C@@H]1CCN(c2nc(N)nc3c2sc2cc(C(F)(F)F)ccc23)C1
Ki (Histamine H4 receptor [1]): 125 nM

Nc1nc(N2CC3CCNC3C2)c2oc3ncc(Cl)cc3c2n1 (stereo not drawn)
Ki (Histamine H4 receptor [1]): 139 nM

CN[C@@H]1CCN(c2nc(N)nc3c2oc2c(Cl)cc(Cl)cc23)C1
Ki (Histamine H4 receptor [1]): 8 nM

CN[C@@H]1CCN(c2nc(N)nc3c2oc2ccc(OC)cc23)C1
Ki (Histamine H4 receptor [1]): 11 nM

Nc1nc(N2CCNCC2)c2oc3cccc(F)c3c2n1
Ki (Histamine H4 receptor [1]): 145 nM

Nc1nc(N2CCNCC2)c2oc3ccc(Cl)c(Cl)c3c2n1
Ki (Histamine H4 receptor [1]): 7.7 nM

Nc1nc(N2CCNCC2)c2oc3ccc(F)c(F)c3c2n1
Ki (Histamine H4 receptor [1]): 156 nM

CN1CCN(c2nc(N)nc3c4cc(Cl)ccc4[s+]([O-])c23)CC1 (stereo not drawn)
Ki (Histamine H4 receptor [1]): 1280 nM

Nc1nc(N2CCNCC2)c2oc3ncc(Cl)cc3c2n1
Ki (Histamine H4 receptor [1]): 35 nM

CN[C@@H]1CCN(c2nc(N)nc3c2oc2ccc(F)cc23)C1
Ki (Histamine H4 receptor [1]): 2 nM

Nc1nc(N2C[C@@H]3C[C@H]2CN3)c2oc3cccc(Cl)c3c2n1
Ki (Histamine H4 receptor [1]): 443 nM

CN[C@@H]1CCN(c2nc(N)nc3c2sc2ccc(F)cc23)C1
Ki (Histamine H4 receptor [1]): 31 nM

CN(C)C1CCN(c2ncnc3c2sc2ccccc23)CC1
Ki (Histamine H4 receptor [1]): > 10000 nM

CN[C@H]1CCN(c2nc(N)nc3c2sc2ccc(Br)cc23)C1
Ki (Histamine H4 receptor [1]): 65 nM

CN[C@@H]1CCN(c2nc(N)nc3c2oc2ccc(Cl)cc23)C1
Ki (Histamine H4 receptor [1]): 0.4 nM

CN[C@@H]1CCN(c2nc(N)nc3c2oc2cccc(Cl)c23)C1
Ki (Histamine H4 receptor [1]): 40 nM

CN1CCN(c2nc(N)nc3c2sc2ccc(Cl)cc23)CC1
Ki (Histamine H4 receptor [1]): 0.3 nM

Nc1nc(N2CCC[C@@H](N)C2)c2oc3ccc(Cl)cc3c2n1
Ki (Histamine H4 receptor [1]): 9.1 nM

Nc1nc(N2CC[C@@H](N)C2)c2oc3ncc(Cl)cc3c2n1
Ki (Histamine H4 receptor [1]): 16 nM

CN1CCN(c2nc(N)nc3c2oc2ccc(Cl)cc23)CC1
Ki (Histamine H4 receptor [1]): 0.1 nM
Kb (Histamine H4 receptor [2]): 2 nM
remaining at […] [3]: 84%
remaining at […] [4]: 0.3%

CN1CCN(c2ncnc3c2sc2ccccc23)CC1
Ki (Histamine H4 receptor [1]): 53 nM

Nc1nc(N2C[C@@H]3CCCN[C@@H]3C2)c2oc3ccc(Cl)cc3c2n1
Ki (Histamine H4 receptor [1]): 21 nM

Nc1nc(N2C[C@H]3CCCN[C@H]3C2)c2oc3ccc(Cl)cc3c2n1
Ki (Histamine H4 receptor [1]): 4.7 nM

NCC1CN(c2nc(N)nc3c2oc2ncc(Cl)cc23)C1
Ki (Histamine H4 receptor [1]): 376 nM

Cc1csc2c(N3CCCN(C)CC3)ncnc12
Ki (Histamine H4 receptor [1]): > 10000 nM

Nc1nc(N2C[C@@H]3C[C@H]2CN3)c2oc3ccccc3c2n1
Ki (Histamine H4 receptor [1]): 196 nM

CN[C@@H]1CCN(c2nc(N)nc3c2sc2ccc(Cl)cc23)C1
Ki (Histamine H4 receptor [1]): 10 nM

CN[C@@H]1CCN(c2nc(N)nc3c2oc2ncc(Cl)cc23)C1
inhibition (Mus musculus): Active
Ki (Histamine H4 receptor [1]): 9.4 nM
fraction unbound [7]: 0.43
IC50 [8]: > 10 µM
AUC [9]: 5.2 µM·h
half-life [10]: 630 min
bioavailability [11]: 91%
Cmax [12]: 1200 nM
half-life [13]: 408 min
Papp B→A [14]: 22 ×10⁻⁶ cm/s
fraction unbound [15]: 0.18
AUC [16]: 1.6 µM·h
half-life [6]: > 180 min
half-life [17]: 72 min
Kb (Histamine H4 receptor [2]): 5.01 nM
Vd [18]: 16.5 L/kg
clearance [19]: 21.7 mL/min/kg
INH [20]: > 3 µM
solubility [21]: > 0.4 µM
half-life [22]: > 61 min
clearance [23]: 68.3 mL/min/kg
Cmax [24]: 1800 nM
solubility [5]: > 0.4 µM
Vd [25]: 6.9 L/kg
Papp A→B [26]: 23 ×10⁻⁶ cm/s
bioavailability [27]: 91%
half-life [28]: > 180 min
half-life [29]: 582 min

CN(C)C1CCN(c2ncnc3c2sc2ccccc23)C1 (stereo not drawn)
Ki (Histamine H4 receptor [1]): > 10000 nM

CN1CCN(c2ncnc3c2oc2ccc(Cl)cc23)CC1
Ki (Histamine H4 receptor [1]): 4.7 nM
half-life [6]: < 5 min
Kb (Histamine H4 receptor [2]): 2.51 nM
half-life [22]: < 5 min
solubility [5]: 0.053 µM (≈ 0.016 µg/mL)
